The text below walks through data of patent publication US20240300942A1, “SMALL MOLECULES FOR TREATEMENT OF CANCER” (VRise Therapeutics Inc., priority 2021, published 2024).

One data set has as its system Calu-1. The experiment in a line: 3D cell proliferation assay, KRAS G12C mutant cell line Calu-1. Format: cell-based. As to conditions: Homo sapiens, 168 h, 7 day. How it is done: (§1) Growth inhibition assays was carried out using 10% FBS supplemented media. Cells were seeded at a desired concentration of 1000-6000 cells/well in a well plate with desired number of wells. Test compounds at a desired concentration range were added after 24 hours. Growth was assessed using the Cell Titer-Glo (CTG. Cell Signaling) for measuring reduction at 0 h (prior to the addition of the test compound) and 3 day (2D) or 7 day (3D) after the addition of test compound. Absorbance read on a BIO-RAD iMark Microplate or any equivalent microplate reader at a predetermined a wavelength for e.g. 450 nm. Data was be analysed and percent inhibition and/or IC50 for each test compound is calculated accordingly. Results: Data provide for a representative Cpd A across various cell lines including selectivity

The target in another data set is human KRAS G12C protein (Homo sapiens, UniProt P01116, G12C). As to the kind of experiment: HTRF-based nucleotide exchange assay detecting GTP binding to K-Ras. As to conditions: KRAS G12C (aa 2-169), SOS1 (aa 564-1049), read-out: IC50, SOS1 mediated nucleotide exchange. In kind it is biochemical. Here is the method:
Compounds (each 10 concentrations or any other concentration of choice at 3-fold or fold of choice for serial dilutions with a starting concentration of ˜300 um or 100 μM or 50 uM) were then delivered to the reaction wells using acoustic dispenser (Echo, Labcyte) and incubated with the Kras/aGST-Tb antibody for 1-hour at room temperature. After 1-hour incubation 5 μL of SOS1/GTP solution (SOS1—(corresponding to amino acid 564-1049) and GDP-DY-647P1 prepared using reaction buffer-20 mM Hepes, pH7.4, 150 mM Nacl, 5 mM MgCl2, 1 mM DTT, 0.05% BSA, 0.0025% NP40) was added to reaction wells to initiate the exchange reaction. HTRF based SOS1 mediated exchange of GDP to GTP was measured on a microplate reader PEHRAstar (BMG Labtech) at an excitation wavelength of 337 nm and emission wavelengths of 665 and 620 nm. No-SOS1 reaction or highest control compound concentration was used as blank and % inhibition was calculated and/or IC50 was determined using Sigmoidal dose response (variable slope) equation.
(In general: Time-resolved FRET reads energy transfer from a long-lived donor to a nearby acceptor.)

The subject of the next data set is HCT116. The experiment in a line: 2D cell proliferation assay, non-KRAS G12C mutant cell line HCT116. Format: cell-based. Here is the method: as §1
Another data set concerns SW1463. As to the kind of experiment: 3D cell proliferation assay, KRAS G12C mutant cell line SW1463. Format: cell-based. As to conditions: Homo sapiens, 168 h, 7 day. Here is the method: as §1
A further data set concerns A549. As to the kind of experiment: 2D cell proliferation assay, non-KRAS G12C mutant cell line A549. In kind it is cell-based. How it is done:
as §1

A further data set concerns NCI-H1373. The experiment in a line: 3D cell proliferation assay, KRAS G12C mutant cell line NCI-H1373. As to conditions: Homo sapiens, 168 h, 7 day. In kind it is cell-based. How it is done:
as §1

Another data set deals with eCT26. As to the kind of experiment: 3D cell proliferation assay, eCT26 (engineered for KRASG12C mutation). In kind it is cell-based. Particulars: 168 h, 7 day. How it is done: as §1
Data set [1] relates to NCI-H358 Human Non-Small Cell Lung Cancer Xenograft. The experiment in a line: Anti-tumor effect in female Balb/c nude mice bearing NCI-H358 xenograft. Format: in vivo. How it is done:
NCI-H358 Xenograft was used to test representative compound of the invention where in NCI-H358 cells were inoculated in a mice model representing Lung Cancer with […] comprising of Control (Vehicle treated, GI) and two treatment cohorts/group namely Paclitaxel as standard (10 mg/kg Q3D, IV, G3) and test compound (100 mg/kg QD, Cpd A, G3) with each cohorts/group. Treatment was initiated when maximum tumor growth reached >200 mm3 and continued till the Vehicle are reached a maximum tumor volume of 2000 mm3.

The test system of another data set is NCI-H23. The experiment in a line: 3D cell proliferation assay, KRAS G12C mutant cell line NCI-H23. Particulars: Homo sapiens, 168 h, 7 day. In kind it is cell-based. Here is the method:
as §1

The subject of a further data set is NCI-H1792. The experiment in a line: 3D cell proliferation assay, KRAS G12C mutant cell line NCI-H1792. In kind it is cell-based. Particulars: Homo sapiens, 168 h, 7 day. How it is done: as §1
In a further data set the test system is SW-837. The experiment in a line: 3D cell proliferation assay, KRAS G12C mutant cell line SW-837. Format: cell-based. Particulars: Homo sapiens, SW837, 168 h, 7 day. How it is done:
as §1

The next data set relates to CO-04-0070. As to the kind of experiment: 3D cell proliferation assay, CO-04-0070 patient derived cell line. Format: cell-based. As to conditions: 168 h, CO-04-0070 (PDC), 7 day. How it is done:
as §1

pIC50: −log10 of the molar value.

Chain of human KRAS G12C protein (P01116 2-169 isoform P01116-2 G12C): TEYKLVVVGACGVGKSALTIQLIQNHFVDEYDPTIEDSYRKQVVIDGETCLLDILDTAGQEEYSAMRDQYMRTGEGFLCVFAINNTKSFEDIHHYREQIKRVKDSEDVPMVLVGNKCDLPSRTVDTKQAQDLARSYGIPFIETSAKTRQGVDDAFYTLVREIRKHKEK

As to `C=CC(=O)N1CCN(c2nc(OC[C@@H]3CCCN3C)c(C#N)c3c2CCN(c2cccc4cccc(Cl)c24)C3)C[C@@H]1CC#N` (single isomer, unassigned) [Ex 25], the negative-log IC50 (pIC50) (as a rule, the negative decadic logarithm of the IC50, by convention in mol/L) was 6.70 to 7.00 with Calu-1; over 8.00 at human KRAS G12C protein; over 7.00 in the data set on SW1463; 6.70 to 7.00 in the data set on NCI-H1373; over 7.00 with eCT26; 6.70 to 7.00 in the data set with NCI-H23. For the same molecule, the negative-log IC50 (pIC50) is 6.00 to 6.70 in the data set on NCI-H1792, 6.70 to 7.00 in the data set with SW-837 and 6.70 to 7.00 with CO-04-0070. For the same molecule, the “Fold Selectivity over KRAS G12C Mutant Cell Line” value with HCT116 was “Ω (Ω = >100 fold)”; with A549, “ΩΩΩ (ΩΩΩ >600 fold)”. For the same molecule, the “reduction in tumour volume as compared to Paclitaxel” value in [1] (100 mg/kg QD vs Paclitaxel 10 mg/kg Q3DX3 Weeks, IV) is on record as “statistically significant reduction”. For the same molecule, the “Tumor Growth inhibition (TGI)” value in [1] (100 mg/kg QD, NCI-H358 xenograft, n=5) was over 65%. Moreover, the “reduction in tumor volume” value in [1] (100 mg/kg QD, from day 3 onwards, P<0.01) is recorded as “statistically significant”. For the same molecule, in [1] (over the 21-day study period), the “effect on overall body weight” value is “No significant effect”.
